Source: patent publication EP4800015A1, “AZABICYCLO DERIVATIVE AND PREPARATION METHOD THEREFOR, AND USE” (Zhejiang Hisun Pharmaceutical Co., Ltd., priority 2023, dated 2025)

Molecular target: T1, recombinant human WRN (Homo sapiens, UniProt Q14191)
T1 construct: purchased BPS 101264
Test: Inhibition of WRN enzyme activity (ATPase), ADP-Glo Kinase Assay
Assay type: biochemical
Conditions: WRN protein 5 nM, Flap 0.1 nM, ATP 30 µM; read-out: IC50
Source text: The following method was used to determine the degree of inhibition of recombinant human WRN ATPase activity by the compounds of the present disclosure in vitro. In this method, ADP-Glo™ Kinase Assay kit (catalog No. V9102) from Promega was used. Detailed experimental procedures can be found in the kit manual.
The experimental procedure was briefly described as follows: test compounds were first dissolved in DMSO to prepare stock solutions, followed by serial dilution using reaction buffer (30 mM Tris, pH 7.5, 2 mM MgCl2, 50 mM NaCl, 0.02% BSA, 0.1% Pluronic F127), with final concentrations of test compounds in the reaction system ranging from 1000 nM to 0.004 nM; WRN protein (purchased from BPS, catalog No. 101264), substrate 5-flap oligonucleotide (Flap26) (synthesized by Shanghai Generay Biotech Co., Ltd., sequence 5'-[…]-3'), and ATP working solution (from ADP-Glo™ Kinase Assay kit component V915A) were prepared using reaction buffer. Reactions were performed in 384-well microplates. At first the compounds and recombinant human WRN protein (final concentration 5 nM) were added to the wells and the plate was incubated at room temperature for 15 minutes, then Flap solution (final concentration 0.1 nM) and ATP solution (final concentration 30 µM) were added to the reaction solution and the plate was incubated at room temperature for 10 minutes. Subsequently, 5 µL of ADP-Glo Reagent was added to the reaction system and incubated at room temperature for 40 minutes. Then 10 µL of Kinase Detection Reagent was added to the reaction system and incubated at room temperature for 30 minutes. After the incubation was completed, chemiluminescence intensity values of each well were measured using a microplate reader in luminescence mode. The percentage inhibition of the compounds at each concentration was calculated by comparison with the luminescence intensity values of the control group (0.1% DMSO), and IC50 values of compounds were obtained by nonlinear regression analysis of compound concentration logarithm-inhibition rate using GraphPad Prism 9 software, as shown in Table 1.
The IC50 value results of the compounds of the present disclosure are expressed as AA and A, respectively as follows: "AA" indicates IC50 ≤ 1 nM; "A" indicates 1 nM < IC50 ≤ 100 nM. Table 1 IC50 of the compounds of the present disclosure for inhibiting WRN enzyme activity (ATPase)

T1 sequence (Q14191 whole entry): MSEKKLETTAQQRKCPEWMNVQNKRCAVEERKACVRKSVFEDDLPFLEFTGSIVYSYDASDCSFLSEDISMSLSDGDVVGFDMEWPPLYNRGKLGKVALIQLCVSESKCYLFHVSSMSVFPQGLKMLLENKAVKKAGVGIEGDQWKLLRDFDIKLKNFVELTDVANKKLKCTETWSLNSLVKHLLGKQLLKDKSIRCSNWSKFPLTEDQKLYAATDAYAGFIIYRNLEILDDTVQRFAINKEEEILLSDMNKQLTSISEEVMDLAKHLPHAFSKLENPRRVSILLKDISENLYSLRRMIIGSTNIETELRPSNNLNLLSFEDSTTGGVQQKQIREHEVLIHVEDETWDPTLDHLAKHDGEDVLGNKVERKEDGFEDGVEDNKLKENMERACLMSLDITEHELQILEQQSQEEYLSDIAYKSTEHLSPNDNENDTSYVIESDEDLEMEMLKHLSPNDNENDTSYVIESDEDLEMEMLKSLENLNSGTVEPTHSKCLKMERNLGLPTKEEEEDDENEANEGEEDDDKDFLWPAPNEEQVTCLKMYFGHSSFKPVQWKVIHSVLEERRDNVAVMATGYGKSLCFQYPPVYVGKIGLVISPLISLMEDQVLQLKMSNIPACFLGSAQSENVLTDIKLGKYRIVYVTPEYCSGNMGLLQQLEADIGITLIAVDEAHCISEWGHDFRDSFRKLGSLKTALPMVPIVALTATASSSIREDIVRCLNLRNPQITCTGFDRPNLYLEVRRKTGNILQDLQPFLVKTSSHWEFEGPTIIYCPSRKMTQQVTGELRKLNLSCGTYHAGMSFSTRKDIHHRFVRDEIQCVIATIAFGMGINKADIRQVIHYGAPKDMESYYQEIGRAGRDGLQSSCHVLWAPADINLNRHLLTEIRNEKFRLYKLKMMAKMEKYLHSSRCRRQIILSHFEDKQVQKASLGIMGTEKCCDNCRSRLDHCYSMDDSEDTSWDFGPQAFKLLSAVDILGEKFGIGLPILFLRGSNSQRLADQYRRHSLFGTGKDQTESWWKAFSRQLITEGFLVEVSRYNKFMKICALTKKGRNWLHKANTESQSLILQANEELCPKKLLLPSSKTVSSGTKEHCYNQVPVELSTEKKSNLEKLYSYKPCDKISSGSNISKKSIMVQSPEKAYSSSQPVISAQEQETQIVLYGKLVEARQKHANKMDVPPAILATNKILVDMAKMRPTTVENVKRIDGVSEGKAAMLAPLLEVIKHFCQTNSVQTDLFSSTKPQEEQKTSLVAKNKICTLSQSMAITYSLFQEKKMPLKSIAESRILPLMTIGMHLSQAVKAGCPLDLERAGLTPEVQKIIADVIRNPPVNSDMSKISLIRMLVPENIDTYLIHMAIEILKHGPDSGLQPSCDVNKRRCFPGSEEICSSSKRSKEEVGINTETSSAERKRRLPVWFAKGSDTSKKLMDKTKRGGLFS

IC50 [nM]	Structure (SMILES)
1 to 100	CCc1c(N2CCN(C(=O)c3ncnc(C)c3O)CC2)c(=O)n2nc(-c3ccc4ccoc4c3)cc2n1CC(=O)Nc1ccc(C(F)(F)F)cc1Cl [Example 57, 2-(2-(benzofuran-6-yl)-5-ethyl-6-(4-(5-hydroxy-6-methylpyrimidine-4-carbonyl)piperazin-1-yl)-7-oxopyrazolo[1,5-a]pyrimidin-4(7H)-yl)-N-(2-chloro-4-(trifluoromethyl)phenyl)acetamide]
1 to 100	CCc1c(N2CCN(C(=O)c3ncnc(C)c3O)CC2)c(=O)n2nc(-c3ccc4c(c3)OCC4)nc2n1CC(=O)Nc1ccc(S(F)(F)(F)(F)F)cc1 [Example 58, 2-(2-(2,3-dihydrobenzofuran-6-yl)-5-ethyl-6-(4-(5-hydroxy-6-methylpyrimidine-4-carbonyl)piperazin-1-yl)-7-oxo-[1,2,4]triazolo[1,5-a]pyrimidin-4(7H)-yl)-N-(4-(pentafluoro-λ^6-sulfaneyl)phenyl)acetamide]
1 to 100	CCc1c(N2CCN(C(=O)c3ncnc(C)c3O)CC2)c(=O)n2nc(C3=CCCCCC3)cc2n1CC(=O)Nc1ccc(S(F)(F)(F)(F)F)cc1 [Example 59, 2-(2-(cyclohept-1-en-1-yl)-5-ethyl-6-(4-(5-hydroxy-6-methylpyrimidine-4-carbonyl)piperazin-1-yl)-7-oxopyrazolo[1,5-a]pyrimidin-4(7H)-yl)-N-(4-(pentafluoro-λ^6-sulfaneyl)phenyl)acetamide]
1 to 100	CCc1c(N2CCN(C(=O)c3ncnc(C)c3O)CC2)c(=O)n2nc(C(C)=C3CCC3)nc2n1CC(=O)Nc1ccc(C(F)(F)F)cc1Cl [Example 60, N-(2-chloro-4-(trifluoromethyl)phenyl)-2-(2-(1-cyclobutylideneethyl)-5-ethyl-6-(4-(5-hydroxy-6-methylpyrimidine-4-carbonyl)piperazin-1-yl)-7-oxo-[1,2,4]triazolo[1,5-a]pyrimidin-4(7H)-yl)ace tamide]
1 to 100	CCc1c(N2CCN(C(=O)c3ncnc(C)c3O)CC2)c(=O)n2nc(C(C)=C3CCC3)nc2n1CC(=O)Nc1ccc(S(F)(F)(F)(F)F)cc1 [Example 61, 2-(2-(1-cyclobutylideneethyl)-5-ethyl-6-(4-(5-hydroxy-6-methylpyrimidine-4-carbonyl)piperazin-1-yl)-7-oxo-[1,2,4]triazolo[1,5-a]pyrimidin-4(7H)-yl)-N-(4-(pentafluoro-λ^6-sulfaneyl)phenyl)ace tamide]
1 to 100	CCc1c(N2CCN(C(=O)c3ncnc(C)c3O)CC2)c(=O)n2nc(C3=CCC4(CC3)CC4)nc2n1CC(=O)Nc1ccc(C(F)(F)F)cc1Cl [Example 64, N-(2-Chloro-4-(trifluoromethyl)phenyl)-2-(5-ethyl-6-(4-(5-hydroxy-6-methylpyrimidine-4-carbonyl)piperazin-1-yl)-7-oxo-2-(spiro[2.5]oct-5-en-6-yl)-[1,2,4]triazolo[1,5-a]pyrimidin-4(7H)-yl)ac etamide]
1 to 100	CCc1c(N2CCN(C(=O)c3ncccc3O)CC2)c(=O)n2nc(C3=Cc4ccccc4C3)nc2n1CC(=O)Nc1ccc(C(F)(F)F)cc1Cl [Example 72, N-(2-chloro-4-(trifluoromethyl)phenyl)-2-(5-ethyl-6-(4-(3-hydroxypicolinoyl)piperazin-1-yl)-2-(1H-inden-2-yl)-7-oxo-[1,2,4]triazolo[1,5-a]pyrimidin-4(7H)-yl)acetamide]
1 to 100	CCc1c(N2CCN(C(=O)c3ncccc3O)CC2)c(=O)n2nc(-c3cc4ccccc4o3)nc2n1CC(=O)Nc1ccc(C(F)(F)F)cc1Cl [Example 75, 2-(2-(benzofuran-2-yl)-5-ethyl-6-(4-(3-hydroxypicolinoyl)piperazin-1-yl)-7-oxo-[1,2,4]triazolo[1 ,5-a]pyrimidin-4(7H)-yl)-N-(2-chloro-4-(trifluoromethyl)phenyl)acetamide]
